Data from patent publication US20220062147A1, “Skin Care Formulation for Treatment of Cellulite” (BOTTLED SCIENCE LIMITED, priority 2020, published 2022).

System: subjects with cellulite
Experiment: Superoxide dismutase administered to subjects with cellulite; subcutaneous fat measured after 90 days
Assay type: in vivo, human
From the text: Similarly, there was a 23% reduction in subcutaneous fat compared with the placebo after 90 days at the femoral fold.

Question: What does the source list for superoxide dismutase?
Answer: reduction in subcutaneous fat compared with the placebo at the femoral fold (after 90 days, femoral fold, vs placebo): 23%; reduction in subcutaneous fat compared with the placebo at the gluteal fold (after 90 days, gluteal fold, vs placebo): 28%; subcutaneous fat at the femoral fold (FIG. 1, right-hand chart) (clinical trials, femoral fold, result in words): significantly reduces; subcutaneous fat at the gluteal fold (FIG. 1, left-hand chart) (clinical trials, gluteal fold, result in words): significantly reduces
